The source of these data is paper PMC10197885, “Anomanolide C suppresses tumor progression and metastasis by ubiquitinating GPX4-driven autophagy-dependent ferroptosis in triple negative breast cancer” (International Journal of Biological Sciences, 2023).

In this test the target is T1, GPX4 (Homo sapiens, UniProt P36969).
T1 sequence (P36969 28-197): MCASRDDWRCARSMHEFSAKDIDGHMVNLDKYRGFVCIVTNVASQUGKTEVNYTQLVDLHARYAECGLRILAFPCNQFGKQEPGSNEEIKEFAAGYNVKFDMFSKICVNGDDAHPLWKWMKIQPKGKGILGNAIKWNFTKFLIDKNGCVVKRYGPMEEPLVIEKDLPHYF
Kind of test: SPR (Biacore, GPX4 coupled to CM5 chip); supported by CETSA in MDA-MB-231 cells. Format: binding. The text has this: SPR (Biacore, GPX4 coupled to CM5 chip); supported by CETSA in MDA-MB-231 cells on GPX4 | AC binds to GPX4 protein as shown by surface plasmon resonance (SPR) measurements.
In general terms: In SPR one partner is held on a chip, and binding of the other changes the refractive index at the surface.

The structures appear in SMILES notation.

The term Kd denotes the equilibrium constant for the complex coming apart. A lower Kd goes with a tighter complex. For `C[C@@]12CC([C@@]3(O)[C@H](O)C[C@H]4[C@@H]5C[C@H]6O[C@]67[C@@H](O)C=CC(=O)[C@]7(C)[C@H]5CC[C@@]43C)[C@@H](C1)OC(=O)[C@]2(C)O` (stereo partly shown) [AC, Anomanolide C], the Kd is ~24 µM.
